# Measured values: patent US10189816B2, “Substituted pyridines as inhibitors of human immunodeficiency virus replication” (priority 2015, dated 2019)
# System: NL-RLuc virus
# Test: Inhibition of HIV replication (NL-RLuc reporter virus in MT-2 cells, luciferase readout)
# Type: cell-based
# Conditions: Human immunodeficiency virus 1, MT2, 120 h, read-out: Activity
# Method in brief: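 MT-2 cells infected with NL4-3-derived NL-RLuc reporter virus (Renilla luciferase replacing part of nef) with serial compound dilutions, RPMI 1640 + 10% FBS; 5 days. Growth by luciferase; EC50 from median effect equation, ≥2 experiments.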
row,SMILES,EC50 [µM]
1,"COc1cccc(F)c1CN1CCc2cc(-c3c(C)nc(C)c([C@H](OC(C)(C)C)C(=O)O)c3N3CCC(C)(C)CC3)ccc2C1 [Compound 115, (S)-2-(tert-butoxy)-2-(4-(4,4-dimethylpiperidin-1-yl)-5-(2-(2-fluoro-6-methoxybenzyl)-1,2,3,4-tetrahydroisoquinolin-6-yl)-2,6-dimethylpyridin-3-yl)acetic acid]",< 0.1
2,"COc1ccc(F)c(CN2CCc3cc(-c4c(C)nc(C)c([C@H](OC(C)(C)C)C(=O)O)c4N4CCC(C)(C)CC4)ccc3C2)c1 [Compound 116, (S)-2-(tert-butoxy)-2-(4-(4,4-dimethylpiperidin-1-yl)-5-(2-(2-fluoro-5-methoxybenzyl)-1,2,3,4-tetrahydroisoquinolin-6-yl)-2,6-dimethylpyridin-3-yl)acetic acid]",< 0.1
3,"COc1cc(F)ccc1CN1CCc2cc(-c3c(C)nc(C)c([C@H](OC(C)(C)C)C(=O)O)c3N3CCC(C)(C)CC3)ccc2C1 [Compound 117, (S)-2-(tert-butoxy)-2-(4-(4,4-dimethylpiperidin-1-yl)-5-(2-(4-fluoro-2-methoxybenzyl)-1,2,3,4-tetrahydroisoquinolin-6-yl)-2,6-dimethylpyridin-3-yl)acetic acid]",< 0.1
4,"Cc1nc(C)c([C@H](OC(C)(C)C)C(=O)O)c(N2CCC(C)(C)CC2)c1-c1ccc2c(c1)CCN(Cc1cccc(OC(F)F)c1)C2 [Compound 118, (S)-2-(tert-butoxy)-2-(5-(2-(3-(difluoromethoxy)benzyl)-1,2,3,4-tetrahydroisoquinolin-6-yl)-4-(4,4-dimethylpiperidin-1-yl)-2,6-dimethylpyridin-3-yl)acetic acid]",< 0.1
5,"COc1ccc(C)cc1CN1CCc2cc(-c3c(C)nc(C)c([C@H](OC(C)(C)C)C(=O)O)c3N3CCC(C)(C)CC3)ccc2C1 [Compound 119, (S)-2-(tert-butoxy)-2-(4-(4,4-dimethylpiperidin-1-yl)-5-(2-(2-methoxy-5-methylbenzyl)-1,2,3,4-tetrahydroisoquinolin-6-yl)-2,6-dimethylpyridin-3-yl)acetic acid]",< 0.1
6,"Cc1nc(C)c([C@H](OC(C)(C)C)C(=O)O)c(N2CCC(C)(C)CC2)c1-c1ccc2c(c1)CCN(Cc1ccc(F)c(OC(F)(F)F)c1)C2 [Compound 120, (S)-2-(tert-butoxy)-2-(4-(4,4-dimethylpiperidin-1-yl)-5-(2-(4-fluoro-3-(trifluoromethoxy)benzyl)-1,2,3,4-tetrahydroisoquinolin-6-yl)-2,6-dimethylpyridin-3-yl)acetic acid]",< 0.1
7,"Cc1nc(C)c([C@H](OC(C)(C)C)C(=O)O)c(N2CCC(C)(C)CC2)c1-c1ccc2c(c1)CCN(Cc1cccc(OC(F)(F)C(F)F)c1)C2 [Compound 121, (S)-2-(tert-butoxy)-2-(4-(4,4-dimethylpiperidin-1-yl)-2,6-dimethyl-5-(2-(3-(1,1,2,2-tetrafluoroethoxy)benzyl)-1,2,3,4-tetrahydroisoquinolin-6-yl)pyridin-3-yl)acetic acid]",< 0.1
8,"COc1cc(F)cc(CN2CCc3cc(-c4c(C)nc(C)c([C@H](OC(C)(C)C)C(=O)O)c4N4CCC(C)(C)CC4)ccc3C2)c1 [Compound 122, (S)-2-(tert-butoxy)-2-(4-(4,4-dimethylpiperidin-1-yl)-5-(2-(3-fluoro-5-methoxybenzyl)-1,2,3,4-tetrahydroisoquinolin-6-yl)-2,6-dimethylpyridin-3-yl)acetic acid]",< 0.1
9,"Cc1nc(C)c([C@H](OC(C)(C)C)C(=O)O)c(N2CCC(C)(C)CC2)c1-c1ccc2c(c1)CCN(Cc1ccccc1OC(F)(F)F)C2 [Compound 123, (S)-2-(tert-butoxy)-2-(4-(4,4-dimethylpiperidin-1-yl)-2,6-dimethyl-5-(2-(2-(trifluoromethoxy)benzyl)-1,2,3,4-tetrahydroisoquinolin-6-yl)pyridin-3-yl)acetic acid]",< 0.1
10,"COc1ccc(F)cc1CN1CCc2cc(-c3c(C)nc(C)c([C@H](OC(C)(C)C)C(=O)O)c3N3CCC(C)(C)CC3)ccc2C1 [Compound 124, (S)-2-(tert-butoxy)-2-(4-(4,4-dimethylpiperidin-1-yl)-5-(2-(5-fluoro-2-methoxybenzyl)-1,2,3,4-tetrahydroisoquinolin-6-yl)-2,6-dimethylpyridin-3-yl)acetic acid]",< 0.1
11,"Cc1nc(C)c([C@H](OC(C)(C)C)C(=O)O)c(N2CCC(C)(C)CC2)c1-c1ccc2c(c1)CCN(Cc1ccc(OC(F)(F)C(F)F)cc1)C2 [Compound 125, (S)-2-(tert-butoxy)-2-(4-(4,4-dimethylpiperidin-1-yl)-2,6-dimethyl-5-(2-(4-(1,1,2,2-tetrafluoroethoxy)benzyl)-1,2,3,4-tetrahydroisoquinolin-6-yl)pyridin-3-yl)acetic acid]",< 0.1
12,"CCOc1cc(CN2CCc3cc(-c4c(C)nc(C)c([C@H](OC(C)(C)C)C(=O)O)c4N4CCC(C)(C)CC4)ccc3C2)c(F)cc1F [Compound 126, (S)-2-(tert-butoxy)-2-(4-(4,4-dimethylpiperidin-1-yl)-5-(2-(5-ethoxy-2,4-difluorobenzyl)-1,2,3,4-tetrahydroisoquinolin-6-yl)-2,6-dimethylpyridin-3-yl)acetic acid]",< 0.1
13,"Cc1nc(C)c([C@H](OC(C)(C)C)C(=O)O)c(N2CCC(C)(C)CC2)c1-c1ccc2c(c1)CCN(Cc1ccc(Cl)c(Cl)c1)C2 [Compound 127, (S)-2-(tert-butoxy)-2-(5-(2-(3,4-dichlorobenzyl)-1,2,3,4-tetrahydroisoquinolin-6-yl)-4-(4,4-dimethylpiperidin-1-yl)-2,6-dimethylpyridin-3-yl)acetic acid]",< 0.1
14,"Cc1nc(C)c([C@H](OC(C)(C)C)C(=O)O)c(N2CCC(C)(C)CC2)c1-c1ccc2c(c1)CCN(Cc1c(Cl)cccc1Cl)C2 [Compound 128, (S)-2-(tert-butoxy)-2-(5-(2-(2,6-dichlorobenzyl)-1,2,3,4-tetrahydroisoquinolin-6-yl)-4-(4,4-dimethylpiperidin-1-yl)-2,6-dimethylpyridin-3-yl)acetic acid]",< 0.1
15,"COc1cccc(CN2CCc3cc(-c4c(C)nc(C)c([C@H](OC(C)(C)C)C(=O)O)c4N4CCC(C)(C)CC4)ccc3C2)c1Cl [Compound 129, (S)-2-(tert-butoxy)-2-(5-(2-(2-chloro-3-methoxybenzyl)-1,2,3,4-tetrahydroisoquinolin-6-yl)-4-(4,4-dimethylpiperidin-1-yl)-2,6-dimethylpyridin-3-yl)acetic acid]",< 0.1
16,"Cc1nc(C)c([C@H](OC(C)(C)C)C(=O)O)c(N2CCC(C)(C)CC2)c1-c1ccc2c(c1)CCN(Cc1cccc(Cl)c1F)C2 [Compound 130, (S)-2-(tert-butoxy)-2-(5-(2-(3-chloro-2-fluorobenzyl)-1,2,3,4-tetrahydroisoquinolin-6-yl)-4-(4,4-dimethylpiperidin-1-yl)-2,6-dimethylpyridin-3-yl)acetic acid]",< 0.1
17,"Cc1cc(Cl)ccc1CN1CCc2cc(-c3c(C)nc(C)c([C@H](OC(C)(C)C)C(=O)O)c3N3CCC(C)(C)CC3)ccc2C1 [Compound 131, (S)-2-(tert-butoxy)-2-(5-(2-(4-chloro-2-methylbenzyl)-1,2,3,4-tetrahydroisoquinolin-6-yl)-4-(4,4-dimethylpiperidin-1-yl)-2,6-dimethylpyridin-3-yl)acetic acid]",< 0.1
18,"Cc1ccc(CN2CCc3cc(-c4c(C)nc(C)c([C@H](OC(C)(C)C)C(=O)O)c4N4CCC(C)(C)CC4)ccc3C2)cc1Cl [Compound 132, (S)-2-(tert-butoxy)-2-(5-(2-(3-chloro-4-methylbenzyl)-1,2,3,4-tetrahydroisoquinolin-6-yl)-4-(4,4-dimethylpiperidin-1-yl)-2,6-dimethylpyridin-3-yl)acetic acid]",< 0.1
19,"Cc1ccc(Cl)cc1CN1CCc2cc(-c3c(C)nc(C)c([C@H](OC(C)(C)C)C(=O)O)c3N3CCC(C)(C)CC3)ccc2C1 [Compound 133, (S)-2-(tert-butoxy)-2-(5-(2-(5-chloro-2-methylbenzyl)-1,2,3,4-tetrahydroisoquinolin-6-yl)-4-(4,4-dimethylpiperidin-1-yl)-2,6-dimethylpyridin-3-yl)acetic acid]",< 0.1
20,"Cc1cc(CN2CCc3cc(-c4c(C)nc(C)c([C@H](OC(C)(C)C)C(=O)O)c4N4CCC(C)(C)CC4)ccc3C2)ccc1Cl [Compound 134, (S)-2-(tert-butoxy)-2-(5-(2-(4-chloro-3-methylbenzyl)-1,2,3,4-tetrahydroisoquinolin-6-yl)-4-(4,4-dimethylpiperidin-1-yl)-2,6-dimethylpyridin-3-yl)acetic acid]",< 0.1
21,"Cc1nc(C)c([C@H](OC(C)(C)C)C(=O)O)c(N2CCC(C)(C)CC2)c1-c1ccc2c(c1)CCN(Cc1c(F)cc(Cl)cc1F)C2 [Compound 135, (S)-2-(tert-butoxy)-2-(5-(2-(4-chloro-2,6-difluorobenzyl)-1,2,3,4-tetrahydroisoquinolin-6-yl)-4-(4,4-dimethylpiperidin-1-yl)-2,6-dimethylpyridin-3-yl)acetic acid]",< 0.1
22,"Cc1nc(C)c([C@H](OC(C)(C)C)C(=O)O)c(N2CCC(C)(C)CC2)c1-c1ccc2c(c1)CCN(Cc1c(F)cccc1Cl)C2 [Compound 136, (S)-2-(tert-butoxy)-2-(5-(2-(2-chloro-6-fluorobenzyl)-1,2,3,4-tetrahydroisoquinolin-6-yl)-4-(4,4-dimethylpiperidin-1-yl)-2,6-dimethylpyridin-3-yl)acetic acid]",< 0.1
23,"COc1ccc(CN2CCc3cc(-c4c(C)nc(C)c([C@H](OC(C)(C)C)C(=O)O)c4N4CCC(C)(C)CC4)ccc3C2)cc1Cl [Compound 137, (S)-2-(tert-butoxy)-2-(5-(2-(3-chloro-4-methoxybenzyl)-1,2,3,4-tetrahydroisoquinolin-6-yl)-4-(4,4-dimethylpiperidin-1-yl)-2,6-dimethylpyridin-3-yl)acetic acid]",< 0.1

# Same assay, conditions: Human immunodeficiency virus 1, MT2, 120 h, read-out: EC50 μM
row,SMILES,EC50 [µM]
1,"COc1ccc(F)c(CN2CCc3cc(-c4c(C)nc(C)c([C@H](OC(C)(C)C)C(=O)O)c4N4CCC(C)(C)CC4)ccc3C2)c1 [Compound 116, (S)-2-(tert-butoxy)-2-(4-(4,4-dimethylpiperidin-1-yl)-5-(2-(2-fluoro-5-methoxybenzyl)-1,2,3,4-tetrahydroisoquinolin-6-yl)-2,6-dimethylpyridin-3-yl)acetic acid]",0.002
2,"Cc1nc(C)c([C@H](OC(C)(C)C)C(=O)O)c(N2CCC(C)(C)CC2)c1-c1ccc2c(c1)CCN(Cc1ccccc1OC(F)(F)F)C2 [Compound 123, (S)-2-(tert-butoxy)-2-(4-(4,4-dimethylpiperidin-1-yl)-2,6-dimethyl-5-(2-(2-(trifluoromethoxy)benzyl)-1,2,3,4-tetrahydroisoquinolin-6-yl)pyridin-3-yl)acetic acid]",0.011
3,"COc1cccc(CN2CCc3cc(-c4c(C)nc(C)c([C@H](OC(C)(C)C)C(=O)O)c4N4CCC(C)(C)CC4)ccc3C2)c1Cl [Compound 129, (S)-2-(tert-butoxy)-2-(5-(2-(2-chloro-3-methoxybenzyl)-1,2,3,4-tetrahydroisoquinolin-6-yl)-4-(4,4-dimethylpiperidin-1-yl)-2,6-dimethylpyridin-3-yl)acetic acid]",0.003
4,"Cc1cc(CN2CCc3cc(-c4c(C)nc(C)c([C@H](OC(C)(C)C)C(=O)O)c4N4CCC(C)(C)CC4)ccc3C2)ccc1Cl [Compound 134, (S)-2-(tert-butoxy)-2-(5-(2-(4-chloro-3-methylbenzyl)-1,2,3,4-tetrahydroisoquinolin-6-yl)-4-(4,4-dimethylpiperidin-1-yl)-2,6-dimethylpyridin-3-yl)acetic acid]",0.012
